Where “and” joins values, the source holds several entries; their conditions need not be identical. Identical values can stand only once.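 Following 48 hours of exposure in 96-well plates, responses at five concentrations were used to interpolate endpoints linearly. GI50 = concentration required for 50% inhibition of growth. TGI: concentration producing complete growth inhibition.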
What was measured:
Assay in all cases: growth of human tumour cells (NCI), 48 h
HL-60(TB) leukemia = tested on: HL-60(TB) leukemia
MDA-MB-435 = tested on: MDA-MB-435
SF-268 CNS = tested on: SF-268 CNS
K-562 leukemia = tested on: K-562 leukemia
EKVX NSCLC = tested on: EKVX NSCLC
RXF 393 renal = tested on: RXF 393 renal
COLO 205 colon = tested on: COLO 205 colon
OVCAR-4 ovarian = tested on: OVCAR-4 ovarian
SK-MEL-5 melanoma = tested on: SK-MEL-5 melanoma
UACC-257 melanoma = tested on: UACC-257 melanoma

Row | SMILES | TGI (HL-60(TB) leukemia) | TGI (MDA-MB-435) | TGI (SF-268 CNS) | TGI (K-562 leukemia) | TGI (EKVX NSCLC) | TGI (RXF 393 renal) | TGI (COLO 205 colon) | TGI (OVCAR-4 ovarian) | TGI (SK-MEL-5 melanoma) | TGI (UACC-257 melanoma) | GI50 (HL-60(TB) leukemia) | GI50 (MDA-MB-435) | GI50 (SF-268 CNS) | GI50 (K-562 leukemia) | GI50 (EKVX NSCLC) | GI50 (RXF 393 renal) | GI50 (COLO 205 colon) | GI50 (OVCAR-4 ovarian) | GI50 (SK-MEL-5 melanoma) | GI50 (UACC-257 melanoma)
1 | C=CC(COC(=O)C(C)(C)OC(C)=O)c1ccc(OC(=O)C(C)C)c(OC)c1 (configuration not stated) | > 49 µM | 27.8 µM | > 43.9 µM | > 63.5 µM | 34.1 µM | 19.7 µM | 7.05 µM | 22.4 µM | 27.8 µM | 31.5 µM | – | – | – | – | – | – | – | – | – | –
2 | Cc1ccc(S(=O)(=O)OCC#CCOS(=O)(=O)c2ccc(C)cc2)cc1 | 3.55 µM | 4.3 µM | 3.87 µM | 10.3 µM | 4.38 µM | 5.21 µM | 5.72 µM | 13.6 µM | 9.96 µM | 4.07 µM | 1.51 µM | 1.9 µM | 1.79 µM | 2.29 µM | 2.08 µM | 2.22 µM | 2.42 µM | 4.81 µM | 3.69 µM | 1.92 µM
3 | CNC(=O)c1cc(Oc2cccc3nc(NC(=O)Nc4cc(C(F)(F)F)cc(C(F)(F)F)c4)ccc23)ccn1 | 77.2 µM | > 100 µM | 39.4 µM | > 100 µM | 86.3 µM | 9.48 µM | 23.8 µM | 7.51 µM | 24.2 µM | 44.1 µM | 23.4 µM | 4.7 µM | 4.93 µM | 9.29 µM | 4.46 µM | 3.03 µM | 10.8 µM | 2.37 µM | 6.2 µM | 13.2 µM
4 | C[N+](C)(C)CC1CCC(C[N+](C)(C)C)C1=O (configuration not stated) | 0.995 µM | 30.7 µM | 21.2 µM | 1.34 µM | 17.5 µM | 3.71 µM | 1.58 µM | 10.8 µM | 23.8 µM | 9.05 µM | 0.309 µM | – | 7.26 µM | – | 4.43 µM | – | 0.457 µM | – | – | –
5 | Cc1cc(-c2nnc(/C=C/c3ccc4c(c3)OCO4)o2)n[nH]1 | 3.99 µM | 2.52 µM | > 50 µM | > 50 µM | > 50 µM | > 50 µM | > 50 µM | > 50 µM | 39 µM | > 50 µM | 1.34 µM | 0.915 µM | 6.5 µM | 1.83 µM | 17.9 µM | 20.9 µM | 15.4 µM | 23.7 µM | 13 µM | 23 µM
6 | O=C1CC[C@H](N2Cc3c(OCc4ccc(CN5CCOCC5)cc4)cccc3C2=O)C(=O)N1 | > 100 µM | > 100 µM | > 100 µM | > 100 µM | > 100 µM | > 100 µM | > 100 µM | > 100 µM | > 100 µM | > 100 µM | 77.6 µM | > 100 µM | > 100 µM | > 100 µM | > 100 µM | > 100 µM | > 100 µM | > 100 µM | > 100 µM | > 100 µM
7 | CC1=C(/C=C/C(=O)CC(=O)/C=C/C2=C(C)CCCC2(C)C)C(C)(C)CCC1 | 24.2 µM | > 100 µM | > 100 µM | > 100 µM | 52.8 µM | 16 µM | > 100 µM | > 100 µM | 91.8 µM | 63.5 µM | 5.42 µM | 38.1 µM | 18.2 µM | 18.7 µM | 15.5 µM | 4.38 µM | 35.9 µM | 21.7 µM | 22.1 µM | 20.6 µM
8 | CCOC(=O)Nc1nc2ccccc2[nH]1 | 6.64 µM and > 20.1 µM | 4 µM | > 100 µM | > 100 µM | > 100 µM | 43.6 µM | 15.2 µM and > 32.6 µM | > 100 µM | > 100 µM | > 100 µM | 2.64 µM and 2.02 µM | 1.28 µM and 0.674 µM | > 100 µM | 3.48 µM and 1.85 µM | > 24 µM | 3.89 µM | 3.62 µM and 3.27 µM | 28.8 µM and 60.6 µM | 3.5 µM and 2.55 µM | 3.77 µM
9 | Cc1ccc(C(=O)NCCCOc2ccc(N3C(N)=NC(N)=NC3(C)C)cc2Cl)cc1S(=O)(=O)F | > 100 µM | > 100 µM | > 100 µM | > 100 µM | > 100 µM | > 100 µM | > 100 µM | > 100 µM | > 100 µM | > 100 µM | > 100 µM | 56.7 µM | 10.7 µM | 8.81 µM | > 100 µM | > 100 µM | 38.1 µM | 81.2 µM | 4.78 µM | > 100 µM
10 | O=C(O)C1CC=CCC1C(=O)Nc1cccc(O)c1 (configuration not stated) | > 100 µM | > 100 µM | > 100 µM | > 100 µM | > 100 µM | > 100 µM | > 100 µM | > 100 µM | > 100 µM | > 100 µM | – | – | – | – | – | – | – | – | – | –
11 | CC(C)(C)c1cc(C(=O)Nc2ccc(C(=O)NCCN)cc2)cc(C(C)(C)C)c1 | 3.87 µM | 3.09 µM | 5.05 µM | 5.06 µM | 14.5 µM | 3.16 µM | 3.77 µM | 11 µM | 3.15 µM | 37.4 µM | 1.9 µM | 1.52 µM | 2.03 µM | 1.94 µM | 2.04 µM | 1.68 µM | 1.85 µM | 2.71 µM | 1.74 µM | 17.7 µM
12 | CO[C@@H]1CCN(c2nccc(Nc3cc4c(C(C)C)ccc(N5CC(CS(C)(=O)=O)[C@H]5C)c4cn3)n2)C[C@@H]1F (some centres not stated) | > 100 µM | 83.9 µM | > 100 µM | > 100 µM | > 100 µM | 7.65 µM | > 100 µM | 53.1 µM | 5.42 µM | 41.1 µM | 3.06 µM | 4.96 µM | 3.98 µM | 2.9 µM | 1.21 µM | 2.96 µM | 4.71 µM | 2.92 µM | 2.22 µM | 4.91 µM
13 | CCN(CC)c1c(-c2ccccc2)n[nH]c1C(=O)OC | 48.8 µM | 55.6 µM | 59.7 µM | > 100 µM | 56.8 µM | 56.9 µM | 64 µM | > 100 µM | 27.6 µM | 36.5 µM | 18.7 µM | 20.1 µM | 22.9 µM | 31.2 µM | 21.2 µM | 21.9 µM | 17.7 µM | 54.1 µM | 14.5 µM | 12.6 µM
14 | O=[N+]([O-])c1cccc(-c2nc(-c3ccc(Cl)cc3Cl)cn2-c2ccccc2)c1 | > 33.3 µM | 2.71 µM | 5.5 µM | > 33.3 µM | 2.5 µM | 2.08 µM | 0.987 µM | 1.12 µM | > 33.3 µM | 10.7 µM | > 33.3 µM | 0.763 µM | 1.14 µM | > 9.26 µM | 0.56 µM | 0.823 µM | 0.485 µM | 0.58 µM | 6.78 µM | 1.41 µM
15 | COCCOCCOCc1n(Cc2ccc3ccccc3c2)c2ccccc2[n+]1Cc1ccc2ccccc2c1 | 0.38 µM | 1.23 µM | 1.68 µM | 1.46 µM | 2.68 µM | 1.58 µM | 1.15 µM | 1.19 µM | 0.544 µM | 0.988 µM | 0.115 µM | 0.282 µM | 0.442 µM | 0.239 µM | 1.04 µM | 0.318 µM | 0.27 µM | 0.231 µM | 0.216 µM | 0.289 µM
16 | CS(=O)(=O)Nc1cc(-c2ccc3ncnc(Nc4ccc(F)c(Cl)c4)c3c2)cnc1Cl | 14.7 µM and 3.35 µM | 7.03 µM and 4.96 µM | 8.05 µM and 20.1 µM | > 82.4 µM | 3.19 µM and 2.61 µM | 4.07 µM and 1.71 µM | 2.19 µM and 4.53 µM | 10.8 µM and 10.4 µM | 1.69 µM | 7.55 µM and 10.4 µM | 0.514 µM and 0.302 µM | 0.605 µM and 0.537 µM | 0.51 µM and 0.675 µM | 1.71 µM | 0.34 µM and 0.352 µM | 0.563 µM and 0.31 µM | 0.562 µM and 1.06 µM | 1.22 µM and 1.47 µM | 0.41 µM | 0.503 µM and 0.706 µM
17 | CN1CCN(c2ccc(OC(F)(F)F)c(Nc3ncc4c(n3)-c3c(c(C(N)=O)nn3CCO)CC4)c2)CC1 | 0.0744 µM | 0.0542 µM and 0.0634 µM | 20.3 µM and > 10 µM | 19.6 µM | > 88.2 µM | 21 µM and > 10 µM | – | 41.2 µM and > 10 µM | 16.7 µM and > 10 µM | 28.6 µM and > 6.61 µM | 0.0237 µM and 0.0298 µM | 0.0165 µM and 0.0188 µM | 0.0661 µM and 0.229 µM | 0.0375 µM and 0.0269 µM | 0.0907 µM and 0.169 µM | 0.398 µM and 0.102 µM | 0.0255 µM and 0.0275 µM | 6.92 µM and 1.39 µM | 0.106 µM and 0.309 µM | –
18 | Cc1cc(C(=O)/C=C/c2ccc[nH]2)ccc1-n1ccc(C(F)(F)F)n1 | > 100 µM | > 100 µM | > 100 µM | > 100 µM | > 100 µM | 4.74 µM | > 100 µM | > 100 µM | 25.3 µM | > 100 µM | 0.457 µM | 35.5 µM | 3.37 µM | 3.43 µM | 6.15 µM | 1.8 µM | 21.8 µM | 3.18 µM | 12.1 µM | 21.9 µM

Reference: PubChem BioAssay (NCI)
